Source: the NIST ThermoML archive (doi:10.1021/je9008014)

Experiment: xn = mol fraction of the nth substance listed
Conditions: 101 kPa, Liquid; for mass density: Pycnometric method

CCOCCOCCOCCO [2-(2-(2-ethoxyethoxy)ethoxy)ethanol] + O
Conditions | mass density [kg/m3] | viscosity [mPa·s]
293.15 K, x1 = 0.01119 | 1006.9 | 1.484
293.15 K, x1 = 0.02492 | 1016.6 | 2.221
293.15 K, x1 = 0.04128 | 1026.2 | 3.256
293.15 K, x1 = 0.06284 | 1035.1 | 4.832
293.15 K, x1 = 0.09179 | 1040.8 | 6.993
293.15 K, x1 = 0.1317 | 1042.7 | 9.102
293.15 K, x1 = 0.1905 | 1042.2 | 10.54
293.15 K, x1 = 0.2885 | 1038.7 | 11.29
293.15 K, x1 = 0.4019 | 1033.6 | 11.34
293.15 K, x1 = 0.4747 | 1031.1 | 10.93
293.15 K, x1 = 0.6076 | 1027.3 | 10.06
293.15 K, x1 = 0.7399 | 1024.4 | 9.168
293.15 K, x1 = 0.8176 | 1022.9 | 8.738
293.15 K, x1 = 0.8956 | 1021.8 | 8.353
293.15 K, x1 = 1 | 1020.6 | 7.796
298.15 K, x1 = 1 | 1016.3 | 6.739
303.15 K, x1 = 0.01119 | 1003.7 | 1.129
303.15 K, x1 = 0.02492 | 1012.6 | 1.595
303.15 K, x1 = 0.04128 | 1020.7 | 2.344
303.15 K, x1 = 0.06284 | 1028.7 | 3.349
303.15 K, x1 = 0.09179 | 1032.8 | 4.589
303.15 K, x1 = 0.1317 | 1034.9 | 5.955
303.15 K, x1 = 0.1905 | 1033.9 | 7.032
303.15 K, x1 = 0.2885 | 1029.8 | 7.522
303.15 K, x1 = 0.4019 | 1024.9 | 7.547
303.15 K, x1 = 0.4747 | 1022.3 | 7.378
303.15 K, x1 = 0.6076 | 1018.5 | 6.868
303.15 K, x1 = 0.7399 | 1015.5 | 6.386
303.15 K, x1 = 0.8176 | 1014.1 | 6.178
303.15 K, x1 = 0.8956 | 1013.1 | 5.884
303.15 K, x1 = 1 | 1011.9 | 5.657
308.15 K, x1 = 1 | 1008.1 | –
313.15 K, x1 = 0.01119 | 999.7 | 0.9341
313.15 K, x1 = 0.02492 | 1007.5 | 1.261
313.15 K, x1 = 0.04128 | 1014.8 | 1.747
313.15 K, x1 = 0.06284 | 1021.8 | 2.429
313.15 K, x1 = 0.09179 | 1025.3 | 3.265
313.15 K, x1 = 0.1317 | 1026.5 | 4.072
313.15 K, x1 = 0.1905 | 1025.5 | 4.899
313.15 K, x1 = 0.2885 | 1021.4 | 5.382
313.15 K, x1 = 0.4019 | 1016.5 | 5.391
313.15 K, x1 = 0.4747 | 1013.9 | 5.226
313.15 K, x1 = 0.6076 | 1010.2 | 4.953
313.15 K, x1 = 0.7399 | 1007.4 | 4.586
313.15 K, x1 = 0.8176 | 1006.1 | 4.457
313.15 K, x1 = 0.8956 | 1005.1 | 4.315
313.15 K, x1 = 1 | 1003.9 | 4.185
323.15 K, x1 = 0.01119 | 995.1 | 0.7411
323.15 K, x1 = 0.02492 | 1002.1 | 1.013
323.15 K, x1 = 0.04128 | 1008.7 | 1.369
323.15 K, x1 = 0.06284 | 1014.4 | 1.859
323.15 K, x1 = 0.09179 | 1017.4 | 2.436
323.15 K, x1 = 0.1317 | 1018.1 | 3.015
323.15 K, x1 = 0.1905 | 1016.8 | 3.558
323.15 K, x1 = 0.2885 | 1012.7 | 3.942
323.15 K, x1 = 0.4019 | 1007.7 | 3.965
323.15 K, x1 = 0.4747 | 1005.2 | 3.885
323.15 K, x1 = 0.6076 | 1001.6 | 3.735
323.15 K, x1 = 0.7399 | 998.8 | 3.552
323.15 K, x1 = 0.8176 | 997.6 | 3.509
323.15 K, x1 = 0.8956 | 996.6 | 3.437
323.15 K, x1 = 1 | 995.5 | 3.326
333.15 K, x1 = 0.01119 | 989.6 | 0.6117
333.15 K, x1 = 0.02492 | 995.7 | 0.8193
333.15 K, x1 = 0.04128 | 1001.9 | 1.092
333.15 K, x1 = 0.06284 | 1006.2 | 1.433
333.15 K, x1 = 0.09179 | 1008.5 | 1.853
333.15 K, x1 = 0.1317 | 1008.7 | 2.252
333.15 K, x1 = 0.1905 | 1007.3 | 2.652
333.15 K, x1 = 0.2885 | 1003.1 | 2.923
333.15 K, x1 = 0.4019 | 998.5 | 3.006
333.15 K, x1 = 0.4747 | 996.1 | 2.953
333.15 K, x1 = 0.6076 | 992.5 | 2.879
333.15 K, x1 = 0.7399 | 989.8 | 2.774
333.15 K, x1 = 0.8176 | 988.6 | 2.728
333.15 K, x1 = 0.8956 | 987.7 | 2.697
333.15 K, x1 = 1 | 986.7 | 2.627
